Results published in patent US11076594B2, “Pyrazolone compound or salt thereof, preparation method therefor, herbicide composition and use thereof” (QINGDAO KINGAGROOT CHEMICAL COMPOUNDS CO., LTD., priority 2015, dated 2021).

Columns and labels:
Assay type in all cases: in vivo
[1] = tested on: rice (japonica rice); experiment: transplanted rice safety evaluation; conditions: 125 g/ha ai; treated 5 days after transplantation; 21 days after treatment
Procedure: The activity level standard of harmful plant destruction (i.e. growth control rate) is as follows: In addition, the rice field soil that loaded into the 1/1,000,000 ha pot was leveled to keep water storage at 3-4 cm depth. The 3 leaf stage rice (japonica rice) was transplanted at 3 cm of transplanting depth the next day. The compound of the present invention was treated by the same way after 5 days of transplantation. The fertility condition of echinochloa, scirpus juncoides, bidens tripartite and sagittaria trifolia 14 days after the treatment of the compound of the invention and the fertility condition of rice 21 days after the treatment of the compound of the invention respectively with the naked eye.

[2] = tested on: alopecurus japonicas; experiment: wheat field resistant weed control, greenhouse spray at 4 leaf stage; parameters: key: Level 10: completely dead; Level 9: above 95% growth control rate; Level 8: above 90% growth control rate; Level 7: above 80% growth control rate; Level 6: above 70% growth control rate; Level 5: above 60% growth control rate; Level 4: above 50% growth control rate; Level 3: above 20% growth control rate; Level 2: 5%-20% growth control rate; Level 1: below 5% growth control rate; conditions: sprayed at 4 leaf stage, 4 weeks after treatment, resistant to ALS and ACCase inhibitor herbicides
In short: (§1)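 Read-out: fresh weight control rate, scored 4 weeks after a post-emergence spray. Treatment at 4 leaf stage (2-3 weeks after sowing); compound dissolved in acetone, with methyl oleate emulsion, diluted with water.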

[3] = tested on: bidens bipinnata; experiment: weed control effect in post-emergence stage (Table 1); parameters: key: Level 10: completely dead; Level 9: above 95% growth control rate; Level 8: above 90% growth control rate; Level 7: above 80% growth control rate; Level 6: above 70% growth control rate; Level 5: above 60% growth control rate; Level 4: above 50% growth control rate; Level 3: above 20% growth control rate; Level 2: 5%-20% growth control rate; Level 1: below 5% growth control rate; conditions: post-emergence spray at 4-5 leaf stage, 250 g/ha active ingredient with 450 kg/ha water, rated after 3 weeks in greenhouse
In short: (§2)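 Post-emergence spray: compounds dissolved in acetone, Tween 80 added, diluted with water, applied to plants at 4-5 leaf stage. Plants kept 3 wk in greenhouse; activity scored as fresh-weight control rate.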

[4] = tested on: rorippa indica; experiment: as above; parameters: key: Level 10: completely dead; Level 9: above 95% growth control rate; Level 8: above 90% growth control rate; Level 7: above 80% growth control rate; Level 6: above 70% growth control rate; Level 5: above 60% growth control rate; Level 4: above 50% growth control rate; Level 3: above 20% growth control rate; Level 2: 5%-20% growth control rate; Level 1: below 5% growth control rate; conditions: post-emergence spray at 4-5 leaf stage, 250 g/ha active ingredient with 450 kg/ha water, rated after 3 weeks in greenhouse
In short: as §2

[5] = tested on: corn gromwell; experiment: wheat field resistant broadleaf weed control, greenhouse spray at 4 leaf stage; parameters: key: Level 10: completely dead; Level 9: above 95% growth control rate; Level 8: above 90% growth control rate; Level 7: above 80% growth control rate; Level 6: above 70% growth control rate; Level 5: above 60% growth control rate; Level 4: above 50% growth control rate; Level 3: above 20% growth control rate; Level 2: 5%-20% growth control rate; Level 1: below 5% growth control rate; conditions: 250 g/ha of the active substance; 4 weeks after treatment; ALS inhibitor resistant
In short: as §1

[6] = tested on: chickweed; experiment: as above; parameters: key: Level 10: completely dead; Level 9: above 95% growth control rate; Level 8: above 90% growth control rate; Level 7: above 80% growth control rate; Level 6: above 70% growth control rate; Level 5: above 60% growth control rate; Level 4: above 50% growth control rate; Level 3: above 20% growth control rate; Level 2: 5%-20% growth control rate; Level 1: below 5% growth control rate; conditions: 250 g/ha of the active substance; 4 weeks after treatment; ALS inhibitor resistant
In short: as §1

[7] = tested on: flixweed; experiment: as above; parameters: key: Level 10: completely dead; Level 9: above 95% growth control rate; Level 8: above 90% growth control rate; Level 7: above 80% growth control rate; Level 6: above 70% growth control rate; Level 5: above 60% growth control rate; Level 4: above 50% growth control rate; Level 3: above 20% growth control rate; Level 2: 5%-20% growth control rate; Level 1: below 5% growth control rate; conditions: 250 g/ha of the active substance; 4 weeks after treatment; ALS inhibitor resistant
In short: as §1

[8] = tested on: shepherd's purse; experiment: as above; parameters: key: Level 10: completely dead; Level 9: above 95% growth control rate; Level 8: above 90% growth control rate; Level 7: above 80% growth control rate; Level 6: above 70% growth control rate; Level 5: above 60% growth control rate; Level 4: above 50% growth control rate; Level 3: above 20% growth control rate; Level 2: 5%-20% growth control rate; Level 1: below 5% growth control rate; conditions: 250 g/ha of the active substance; 4 weeks after treatment; ALS inhibitor resistant
In short: as §1

Compound | Rice (activity level, transplanted rice safety) [1] | Alopecurus japonicas weed controlling effect (activity level) ([2]; 1 g/mu) | Alopecurus japonicas weed controlling effect (activity level) ([2]; 2 g/mu) | Alopecurus japonicas weed controlling effect (activity level) ([2]; 4 g/mu) | Alopecurus japonicas weed controlling effect (activity level) ([2]; 8 g/mu) | weed control effect, Bidens bipinnata (level) [3] | weed control effect, Rorippa indica (level) [4] | corn gromwell weed controlling effect (activity level) [5] | chickweed weed controlling effect (activity level) [6] | flixweed weed controlling effect (activity level) [7] | shepherd's purse weed controlling effect (activity level) [8]
Cc1nn(C)cc1C(=O)Oc1c(C(=O)c2ccc(C(F)(F)F)c(N3CCCC3=O)c2Cl)c(C)nn1C [Compound 023] | 0 | 1 (Level 1: below 5% growth control rate) | 6 (Level 6: above 70% growth control rate) | 8 (Level 8: above 90% growth control rate) | 10 | 10 | 10 |  |  |  | 
Cc1nn(C)c(O)c1C(=O)c1ccc(C(F)(F)F)c(N2CCCCC2=O)c1Cl [Compound 035] | 0 | 0 | 2 (Level 2: 5%-20% growth control rate) | 6 (Level 6: above 70% growth control rate) | 6 (Level 6: above 70% growth control rate) | 9 (Level 9: above 95% growth control rate) | 9 (Level 9: above 95% growth control rate) |  |  |  | 
CCOc1c(C(=O)Oc2c(C(=O)c3ccc(C(F)(F)F)c(N4CCCCC4=O)c3Cl)c(C)nn2C)cnn1C [Compound 037] | 2 (Level 2: 5%-20% growth control rate) |  |  |  |  | 10 | 10 | 10 | 10 | 10 | 10
CCOc1c(C(=O)Oc2c(C(=O)c3ccc(C(F)(F)F)c(-n4cccn4)c3Cl)c(C)nn2C)cnn1C [Compound 071] | 0 |  |  |  |  | 7 (Level 7: above 80% growth control rate) | 10 | 10 | 10 | 10 | 10
CCOc1c(C(=O)Oc2c(C(=O)c3ccc(C(F)(F)F)c(-n4cc(C)cn4)c3Cl)cnn2C)cnn1C [Compound 081] | 1 (Level 1: below 5% growth control rate) |  |  |  |  | 10 | 10 | 10 | 10 | 10 | 10
CCOc1c(C(=O)Oc2c(C(=O)c3ccc(C(F)(F)F)c(-n4cc(C)cn4)c3Cl)c(C3CC3)nn2C)cnn1C [Compound 092] | 0 |  |  |  |  | 8 (Level 8: above 90% growth control rate) | 10 | 10 | 10 | 10 | 10
CCn1nc(C)c(C(=O)c2ccc(C(F)(F)F)c(-n3cccn3)c2Cl)c1OC(=O)c1cn(C)nc1C [Compound 129] | 2 (Level 2: 5%-20% growth control rate) |  |  |  |  | 9 (Level 9: above 95% growth control rate) | 10 | 10 | 10 | 10 | 10
